Source: patent publication US20140220640A1, “METHOD FOR MANUFACTURING DETOXIFICATED LIGNOCELLULOSIC BIOMASS HYDROLYSATE WITH DECREASED OR ELIMINATED TOXICITY AND METHOD FOR MANUFACTURING ORGANIC OR AND BIOFUEL USING THE SAME” (KOREA INSTITUTE OF SCIENCE AND TECHNOLOGY, priority 2011, published 2014)

What was measured:
[1] = tested on: Clostridium tyrobutyricum (ATCC 25755); experiment: Production of butyric acid by Clostridium tyrobutyricum (gas chromatography); assay type: cell-based; details: 1 g/L phenolic compound plus 1 g/L Tween 80; FIG. 4
Experimental: (§1) In order to investigate the effect of phenolic compounds on the growth of microorganisms and production of butanol or butyric acid by the microorganisms, microorganisms were cultured in a medium containing phenolic compounds and the cell weight of the microorganisms and the concentration of produced butanol and butyric acid was measured.
A butyric acid fermentation medium included 20 g of glucose, 5 g of yeast extract, 0.2 g of magnesium sulfate, 0.01 g of manganese sulfate, 0.01 g of iron sulfate, 0.01 g of sodium chloride, 0.5 g of monopotassium phosphate (KH2PO4), 0.5 g of dipotassium phosphate (K2HPO4) and 2 g of ammonium acetate per liter. And, a butanol fermentation medium included 20 g of glucose, 5 g of yeast extract, 0.2 g of magnesium sulfate, 0.01 g of manganese sulfate, 0.01 g of iron sulfate, 0.01 g of sodium chloride, 0.5 g of monopotassium phosphate (KH2PO4), 0.5 g of dipotassium phosphate (K2HPO4) and 2 g of ammonium acetate per liter. […]
The concentration of butyric acid and butanol was analyzed using a gas chromatography system (Agilent Technologies 6890N Network GC system) equipped with a flame ionization detector. […]
The growth of Clostridium tyrobutyricum (ATCC 25755) and production of butyric acid thereby in the medium containing the phenolic compounds, 1 g/L each, and 1 g/L of Tween 80 were measured. […]

[2] = tested on: Clostridium tyrobutyricum (ATCC 25755); experiment: Growth of Clostridium tyrobutyricum in batch culture (absorbance at 600 nm); assay type: cell-based; details: 1 g/L phenolic compound in medium, vs control with no phenolic compound; FIG. 3
Experimental: as §1
A butyric acid fermentation medium included 20 g of glucose, 5 g of yeast extract, 0.2 g of magnesium sulfate, 0.01 g of manganese sulfate, 0.01 g of iron sulfate, 0.01 g of sodium chloride, 0.5 g of monopotassium phosphate (KH2PO4), 0.5 g of dipotassium phosphate (K2HPO4) and 2 g of ammonium acetate per liter. And, a butanol fermentation medium included 20 g of glucose, 5 g of yeast extract, 0.2 g of magnesium sulfate, 0.01 g of manganese sulfate, 0.01 g of iron sulfate, 0.01 g of sodium chloride, 0.5 g of monopotassium phosphate (KH2PO4), 0.5 g of dipotassium phosphate (K2HPO4) and 2 g of ammonium acetate per liter. Each medium was flushed with argon gas and sterilized at 121° C. for 15 minutes before measurement. Initial pH was adjusted to 6.8 with 1 N potassium hydroxide (KOH).
p-Coumaric acid, ferulic acid, syringaldehyde and vanillic acid, 1 g/L each, were added to the medium as phenolic compounds. A medium with no phenolic compound added was used as control.
Butyric acid fermentation was conducted using Clostridium tyrobutyricum (American Type Culture Collection, ATCC 25755) after culturing for two passages. Butanol fermentation was conducted using Clostridium acetobutylicum (ATCC 824) and Clostridium beijerinckii (National Collection of Industrial, Marine and Food Bacteria, NCIMB 8052) after culturing for two passages.
Butyric acid and butanol fermentation was carried out by adding the culture fluid to a batch fermenter. Batch culture was performed by adding 20 mL of the medium to a 60-mL serum bottle, adding the culture fluid with an amount of 5% based on the medium and then incubating in a shaking incubator at 37° C. and 150 rpm.
The growth of the microorganisms was evaluated by measuring absorbance at 600 nm using a spectrophotometer (UVmini-1240, Shimadzu).
As the surfactant, Tween 80 (BioXtra, Sigma, viscous liquid) was used. The phenolic compound and Tween 80 were added at an amount of 1 g/L to the medium of Example 1. A medium with no phenolic compound or Tween 80 added was used as control.
The growth of Clostridium tyrobutyricum (ATCC 25755) and production of butyric acid thereby in the medium containing the phenolic compounds, 1 g/L each, and 1 g/L of Tween 80 were measured.
Other experimental conditions were the same as in Example 1.
1 g/L of lignin (alkali, Sigma Aldrich 471003) was added to the medium of Example 1 instead of the phenolic compounds. […]

Row | SMILES | detoxifying effect of added surfactant on butyric acid production [1] | inhibiting the growth of the microorganism [2] [%]
1 | O=C(O)/C=C/c1ccc(O)cc1 [p-coumaric acid, p-Coumaric acid] | higher detoxifying effect | 99
2 | COc1cc(/C=C/C(=O)O)ccc1O [ferulic acid] | higher detoxifying effect | 74
3 | COc1cc(C(=O)O)ccc1O [vanillic acid] | – | 48
4 | COc1cc(C=O)cc(OC)c1O [syringaldehyde] | – | 30
